In the supplement of paper PMC8612539:
≈ marks a conversion by molar mass, not a printed value.

Tested on: Pasteurella multocida
Assay: minimum inhibitory concentration (MIC)
Procedure: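 Broth microdilution MIC (Sensititre BOPO7F bovine plate, CLSI methods) of 19 antimicrobials against field isolates of P. multocida, M. haemolytica, H. somni (deep nasopharyngeal swabs) and E. coli, Enterococcus spp. (rectal swabs) from weaned dairy heifers. Incubation 16-24 h at 35 C. MIC is the lowest concentration preventing visible growth. Values with <= or > lie at the tested range limits. Trimethoprim-sulfamethoxazole is given as the trimethoprim component of a 1:19 mixture.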

CNC(C)C1CCC(N)C(OC2C(N)CC(N)C(OC3OCC(C)(O)C(NC)C3O)C2O)O1 (stereo not given) [Gentamicin]
Details | minimum inhibitory concentration [µg/mL]
isolate (source animal id): 10 | 4 (≈ 8.38 µM)
isolate (source animal id): 11 | 2 (≈ 4.19 µM)
isolate (source animal id): 12 | 4 (≈ 8.38 µM)
isolate (source animal id): 19 | 4 (≈ 8.38 µM)
isolate (source animal id): 23 | 4 (≈ 8.38 µM)
isolate (source animal id): 26 | 4 (≈ 8.38 µM)
isolate (source animal id): 98 | 4 (≈ 8.38 µM)
isolate (source animal id): 104 | 2 (≈ 4.19 µM)
isolate (source animal id): 115 | 4 (≈ 8.38 µM)
isolate (source animal id): 117 | 4 (≈ 8.38 µM)
isolate (source animal id): 118 | 4 (≈ 8.38 µM)
isolate (source animal id): 121 | 4 (≈ 8.38 µM)
isolate (source animal id): 124 | 4 (≈ 8.38 µM)
isolate (source animal id): 125 | 4 (≈ 8.38 µM)
isolate (source animal id): 128 | 4 (≈ 8.38 µM)
isolate (source animal id): 131 | 16 (≈ 33.5 µM)
isolate (source animal id): 135 | 8 (≈ 16.8 µM)
isolate (source animal id): 136 | 4 (≈ 8.38 µM)
isolate (source animal id): 140 | 4 (≈ 8.38 µM)
isolate (source animal id): 144 | 4 (≈ 8.38 µM)
isolate (source animal id): 146 | 4 (≈ 8.38 µM)
isolate (source animal id): 150 | 4 (≈ 8.38 µM)
isolate (source animal id): 151 | 4 (≈ 8.38 µM)
isolate (source animal id): 153 | 4 (≈ 8.38 µM)
isolate (source animal id): 155 | 4 (≈ 8.38 µM)
isolate (source animal id): 157 | 4 (≈ 8.38 µM)
isolate (source animal id): 160 | 4 (≈ 8.38 µM)
isolate (source animal id): 164 | 4 (≈ 8.38 µM)
isolate (source animal id): 165 | 4 (≈ 8.38 µM)
isolate (source animal id): 167 | 4 (≈ 8.38 µM)
isolate (source animal id): 168 | 4 (≈ 8.38 µM)
isolate (source animal id): 169 | 4 (≈ 8.38 µM)
isolate (source animal id): 170 | 4 (≈ 8.38 µM)
isolate (source animal id): 171 | 4 (≈ 8.38 µM)
isolate (source animal id): 172 | 4 (≈ 8.38 µM)
isolate (source animal id): 173 | 4 (≈ 8.38 µM)
isolate (source animal id): 174 | 4 (≈ 8.38 µM)
isolate (source animal id): 175 | 4 (≈ 8.38 µM)
isolate (source animal id): 176 | 4 (≈ 8.38 µM)
isolate (source animal id): 177 | 4 (≈ 8.38 µM)
isolate (source animal id): 178 | 4 (≈ 8.38 µM)
isolate (source animal id): 179 | 4 (≈ 8.38 µM)
isolate (source animal id): 182 | 4 (≈ 8.38 µM)
isolate (source animal id): 192 | 4 (≈ 8.38 µM)
isolate (source animal id): 193 | 4 (≈ 8.38 µM)
isolate (source animal id): 195 | 4 (≈ 8.38 µM)
isolate (source animal id): 196 | 4 (≈ 8.38 µM)
isolate (source animal id): 197 | 4 (≈ 8.38 µM)
isolate (source animal id): 198 | 4 (≈ 8.38 µM)
isolate (source animal id): 199 | 4 (≈ 8.38 µM)
isolate (source animal id): 200 | 4 (≈ 8.38 µM)
isolate (source animal id): 201 | 4 (≈ 8.38 µM)
isolate (source animal id): 203 | 4 (≈ 8.38 µM)
isolate (source animal id): 204 | 4 (≈ 8.38 µM)
isolate (source animal id): 205 | 4 (≈ 8.38 µM)
isolate (source animal id): 206 | 4 (≈ 8.38 µM)
isolate (source animal id): 207 | 4 (≈ 8.38 µM)
isolate (source animal id): 208 | 4 (≈ 8.38 µM)
isolate (source animal id): 209 | 4 (≈ 8.38 µM)
isolate (source animal id): 210 | 4 (≈ 8.38 µM)
isolate (source animal id): 213 | 4 (≈ 8.38 µM)
isolate (source animal id): 216 | 4 (≈ 8.38 µM)
isolate (source animal id): 223 | 4 (≈ 8.38 µM)
isolate (source animal id): 227 | 2 (≈ 4.19 µM)
isolate (source animal id): 229 | 2 (≈ 4.19 µM)
isolate (source animal id): 233 | 4 (≈ 8.38 µM)
isolate (source animal id): 234 | 4 (≈ 8.38 µM)
isolate (source animal id): 237 | 4 (≈ 8.38 µM)
isolate (source animal id): 241 | 4 (≈ 8.38 µM)
isolate (source animal id): 245 | 4 (≈ 8.38 µM)
isolate (source animal id): 247 | 4 (≈ 8.38 µM)
isolate (source animal id): 250 | 2 (≈ 4.19 µM)
isolate (source animal id): 254 | 4 (≈ 8.38 µM)
isolate (source animal id): 255 | 4 (≈ 8.38 µM)
isolate (source animal id): 258 | 4 (≈ 8.38 µM)
isolate (source animal id): 261 | 2 (≈ 4.19 µM)
isolate (source animal id): 262 | 4 (≈ 8.38 µM)
isolate (source animal id): 269 | 4 (≈ 8.38 µM)
isolate (source animal id): 270 | 4 (≈ 8.38 µM)
isolate (source animal id): 274 | 4 (≈ 8.38 µM)
isolate (source animal id): 275 | 4 (≈ 8.38 µM)
isolate (source animal id): 276 | 4 (≈ 8.38 µM)
isolate (source animal id): 277 | 4 (≈ 8.38 µM)
isolate (source animal id): 278 | 4 (≈ 8.38 µM)
isolate (source animal id): 279 | 4 (≈ 8.38 µM)
isolate (source animal id): 280 | 4 (≈ 8.38 µM)
isolate (source animal id): 284 | 8 (≈ 16.8 µM)
isolate (source animal id): 285 | 2 (≈ 4.19 µM)
isolate (source animal id): 287 | 2 (≈ 4.19 µM)
isolate (source animal id): 290 | 4 (≈ 8.38 µM)
isolate (source animal id): 294 | 4 (≈ 8.38 µM)
isolate (source animal id): 295 | 2 (≈ 4.19 µM)
isolate (source animal id): 296 | 2 (≈ 4.19 µM)
isolate (source animal id): 307 | 4 (≈ 8.38 µM)
isolate (source animal id): 310 | 4 (≈ 8.38 µM)
isolate (source animal id): 311 | 4 (≈ 8.38 µM)
isolate (source animal id): 312 | ≤ 1
isolate (source animal id): 313 | 2 (≈ 4.19 µM)
isolate (source animal id): 315 | 4 (≈ 8.38 µM)
isolate (source animal id): 316 | 4 (≈ 8.38 µM)
